Source: PMC6100582 (Molecules : A Journal of Synthetic Chemistry and Natural …, 2018)
In brackets after ≈: the same amount, converted by molar mass. Like-named read-outs stand apart in the source and are kept apart here.

Legend:
[1] = test system: Candida albicans ATCC 90028; assay: In vitro antifungal susceptibility testing (MIC determination); assay type: cell-based; details: ATCC90028
Para-Influenza-3 Virus = assay: organism not typed; assay type: cell-based
Punta Toro Virus = assay: microbe, parasite or virus in culture; assay type: cell-based
Vero cell cultures = details: African green monkey
Reovirus-1 = assay: Antiviral activity in Vero cell cultures; assay type: cell-based
in vitro = details: African green monkey
Yellow Fever Virus = assay: microbe, parasite or virus in culture; assay type: cell-based; details: Vero
Coxsackie Virus B4 = assay: Antiviral activity in Vero cell cultures; assay type: cell-based; details: Enterovirus B
Sindbis Virus = assay: microbe, parasite or virus in culture; assay type: cell-based; details: Vero
[2] = test system: Capan-1 (pancreatic adenocarcinoma); assay: Antiproliferative screening (cytostatic activity); assay type: cell-based; details: Homo sapiens, CAPAN-1, 72 h, read-out: IC50 Capan-1
Protocol: (§1) All human tumor cell lines were acquired from the American Type Culture Collection (ATCC, Manassas, VA, USA), except for the DND-41 cell line which was purchased from the Deutsche Sammlung von Mikroorganismen und Zellkulturen (DSMZ Leibniz-Institut, Braunschweig, Germany) and the Hap1 cell line which was purchased from Horizon Discovery (Waterbeach, UK). […] All media were supplemented with 10% FBS (HyClone, GE Healthcare Life Sciences, USA). […] After overnight incubation, cells were treated with test compounds at four different concentrations ranging from 100 to 0.8 µM. […] Images were taken every 3 h, with one field image per well under 10× magnification. All compounds were tested with duplicate data points and averaged.

[3] = test system: K-562 (chronic myeloid leukemia); assay: Antiproliferative screening (cytostatic activity); assay type: cell-based; details: Homo sapiens, K562, 72 h, read-out: IC50 K-562
Protocol: as §1

MM.1S (multiple myeloma) = assay: Antiproliferative screening (cytostatic activity); assay type: cell-based; details: Homo sapiens, MM1.S, 72 h, read-out: IC50 MM.1S
Protocol: as §1

[4] = test system: Z-138 (non-Hodgkin lymphoma); assay: Antiproliferative screening (cytostatic activity); assay type: cell-based; details: Homo sapiens, Z-138, 72 h, read-out: IC50 Z-138
Protocol: as §1

[5] = test system: NCI-H460 (lung carcinoma); assay: Antiproliferative screening (cytostatic activity); assay type: cell-based; details: Homo sapiens, NCI-H460, 72 h, read-out: IC50 NCI-H460
Protocol: as §1

[6] = test system: HCT-116 (colorectal carcinoma); assay: Antiproliferative screening (cytostatic activity); assay type: cell-based; details: Homo sapiens, HCT-116, 72 h, read-out: IC50 HCT-116
Protocol: as §1

[7] = test system: Streptococcus pneumonia MFBF 10373; assay: Minimum biofilm eradication assay; assay type: cell-based, Streptococcus pneumoniae
Protocol: (§2) MBECs of fumardiamides 4a–f and succindiamides 5a–f were determined as follows. Each well (96-well plate) was filled with 100 µl of bacterial (10^7 CFU/mL) or yeast (5 × 10^6 CFU/mL) suspension. When the inhibition of yeast biofilm formation was tested, the wells were pre-treated with fetal bovine serum (FBS) (250 µl per well). Negative controls contained broth only. Positive controls were performed using standard antimicrobial drugs gentamycin (Gen) and Amph, respectively. […] Following incubation period, each well was aspirated, washed three times and vigorously shaken to remove all non-adherent bacteria/yeast. The remaining attached cells were fixed with methanol (15 min) and the plates were left to dry overnight. Formed biofilm was stained with crystal violet (1%, 5 min). Excess stain was rinsed by placing the plate under running tap water and the plates were left to dry. Adherent cells were solubilized using ethanol. The absorbance was read at 570 nm. The MBEC value represents the lowest dilution of a compound at which bacteria fail to grow.

[8] = test system: Staphylococcus aureus ATCC 6538; assay: Minimum biofilm eradication assay; assay type: cell-based
Protocol: as §2

[9] = test system: Acinetobacter baumannii MFBF 10913; assay: Minimum biofilm eradication assay; assay type: cell-based
Protocol: as §2

[10] = test system: Pseudomonas aeruginosa ATCC 27853; assay: Minimum biofilm eradication assay; assay type: cell-based
Protocol: as §2

[11] = test system: Bacillus cereus ATCC 11778; assay: Minimum biofilm eradication assay; assay type: cell-based
Protocol: as §2

[12] = test system: Enterococcus faecalis ATCC 29212; assay: Minimum biofilm eradication assay; assay type: cell-based
Protocol: as §2

[13] = test system: Salmonella enteritidis MFBF 11945; assay: Minimum biofilm eradication assay; assay type: cell-based
Protocol: as §2

[14] = test system: Escherichia coli ATCC 10536; assay: Minimum biofilm eradication assay; assay type: cell-based
Protocol: as §2

[15] = test system: Serratia marcescens ATCC 10905; assay: Minimum biofilm eradication assay; assay type: cell-based
Protocol: as §2

[16] = test system: Bacillus subtilis ATCC 6633; assay: Minimum biofilm eradication assay; assay type: cell-based
Protocol: as §2

[17] = test system: Proteus mirabilis MFBF 10430; assay: Minimum biofilm eradication assay; assay type: cell-based
Protocol: as §2

[18] = test system: Hap1 (chronic myeloid leukemia); assay: Antiproliferative screening (cytostatic activity); assay type: cell-based; details: Homo sapiens, HAP1, 72 h, read-out: IC50 Hap1
Protocol: (§3) Cytostatic activity was evaluated in vitro on nine different types of human tumor cell lines: Capan-1, Hap1, HCT-116, and NCI-H460, as well as hematological tumors such as DND-41, HL-60, K-562, MM.1S and Z-138 as described previously. All human tumor cell lines were acquired from the American Type Culture Collection (ATCC, Manassas, VA, USA), except for the DND-41 cell line which was purchased from the Deutsche Sammlung von Mikroorganismen und Zellkulturen (DSMZ Leibniz-Institut, Braunschweig, Germany) and the Hap1 cell line which was purchased from Horizon Discovery (Waterbeach, UK). Capan-1, Hap1, HL-60, K-562, Z-138, MM.1S and DND-41 were cultured in Iscove′s Modified Dulbecco′s Medium (IMDM, Gibco Life Technologies, Gaithersburg, MD, USA), HCT-116 were grown in McCoy′s 5A Medium (Gibco Life Technologies) and NCI-H460 were cultured in RPMI (Gibco Life Technologies). All media were supplemented with 10% FBS (HyClone, GE Healthcare Life Sciences, USA). Adherent cell lines HCT-116, Hap1, NCI-H460, and Capan-1 cells were seeded at a density between 400 and 1250 cells per well, in 384-well, black-walled, clear-bottomed tissue culture plates (Greiner Bio-One, Kremsmünster, Germany). After overnight incubation, cells were treated with test compounds at four different concentrations ranging from 100 to 0.8 µM. Suspension cell lines HL-60, K-562, Z-138, MM.1S, and DND-41 were seeded at densities ranging from 3000 to 10,000 cells per well in 384-well, black-walled, clear-bottomed tissue culture plates containing test compounds at the same four concentrations. The plates were incubated and monitored at 37 °C for 72 h in an IncuCyte (Essen BioScience Inc., Ann Arbor, MI, USA) for real-time imaging. Images were taken every 3 h, with one field image per well under 10× magnification. All compounds were tested with duplicate data points and averaged. […]

[19] = test system: HL-60 (acute myeloid leukemia); assay: Antiproliferative screening (cytostatic activity); assay type: cell-based; details: Homo sapiens, HL-60, 72 h, read-out: IC50 HL-60
Protocol: as §3

[20] = test system: DND-41 (acute lymphoblastic leukemia); assay: Antiproliferative screening (cytostatic activity); assay type: cell-based, human; details: Homo sapiens, DND41, 72 h, read-out: IC50 DND-41
Protocol: as §3

[21] = test system: Staphylococcus aureus ATCC 6538; assay: Antimicrobial susceptibility assay in vitro (MIC determination); assay type: cell-based; details: ATCC6538
[22] = test system: Acinetobacter baumannii MFBF 10913; assay: as above; assay type: cell-based; details: MFBF10913, serial microdilution, 18 h, 35 °C
Protocol: (§4) Stock solutions of the tested compounds were prepared in DMSO (10 mg/mL). […] The absorbance was recorded at 540 nm. As a positive quality control (susceptibility of strains) tetracycline hydrochloride (TC) (Sigma-Aldrich) was added into wells.

[23] = test system: Bacillus cereus ATCC 11778; assay: as above; assay type: cell-based; details: ATCC11778, serial microdilution, 18 h, 35 °C
Protocol: as §4

[24] = test system: Streptococcus pneumoniae MFBF 10373; assay: as above; assay type: cell-based; details: MFBF10373, serial microdilution, 18 h, 35 °C
Protocol: as §4

[25] = test system: Bacillus subtilis ATCC 6633; assay: as above; assay type: cell-based; details: ATCC6633, serial microdilution, 18 h, 35 °C
Protocol: as §4

[26] = Vero cells, MTS, read-out: EC50 Para-Influenza-3 Virus, MTS
[27] = Vero cells, MTS, read-out: EC50 Punta Toro Virus, MTS
[28] = Vero cells, MTS, read-out: EC50 Reovirus-1, MTS
[29] = Vero cells, visual CPE score, read-out: EC50 Reovirus-1, Visual CPE Score
[30] = read-out: EC50 Yellow Fever Virus, MTS
[31] = read-out: EC50 Yellow Fever Virus, Visual CPE Score
[32] = B4, Vero cells, MTS, read-out: EC50 Coxsackie Virus B4, MTS
[33] = B4, Vero cells, visual CPE score, read-out: EC50 Coxsackie Virus B4, Visual CPE Score
[34] = read-out: EC50 Sindbis Virus, MTS
[35] = read-out: EC50 Sindbis Virus, Visual CPE Score

C[C@@H]1[C@H](O)[C@@H](C)/C=C/C=C/C=C/C=C/C=C/C=C/C=C/[C@H](O[C@@H]2O[C@H](C)[C@@H](O)[C@H](N)[C@@H]2O)C[C@@H]2O[C@](O)(C[C@@H](O)C[C@@H](O)[C@H](O)CC[C@@H](O)C[C@@H](O)CC(=O)O[C@H]1C)C[C@H](O)[C@H]2C(=O)O [Amph, amphotericin B, reference compound]
MIC [1]: 0.5 µg/mL (≈ 0.541 µM)

COc1c(C)c2c(c(O)c1C/C=C(\C)CCC(=O)O)C(=O)OC2 [MPA, mycophenolic acid, reference compound]
EC50 (Para-Influenza-3 Virus; [26]): 1 µM | EC50 (Punta Toro Virus; [27]): 11 µM | EC50 (Punta Toro Virus; Vero cells, visual CPE score, read-out: EC50 Punta Toro Virus, Visual CPE Score): 8.9 µM | Cytotoxicity MCC (minimum cytotoxic concentration) (Vero cell cultures): >100 | EC50 (Reovirus-1; [28]): 0.6 µM | EC50 (Reovirus-1; [29]): 0.8 µM | CC50 (in vitro): > 100 µg/mL | EC50 (Yellow Fever Virus; [30]): 0.5 µM | EC50 (Yellow Fever Virus; [31]): 0.8 µM | EC50 (Coxsackie Virus B4; [32]): > 100 µM | EC50 (Coxsackie Virus B4; [33]): > 100 µM | EC50 (Sindbis Virus; [34]): 12 µM | EC50 (Sindbis Virus; [35]): 1.7 µM

COc1cc(NC(C)CCCN)c2ncccc2c1 (stereo not drawn) [PQ, primaquine, reference compound]
EC50 (Para-Influenza-3 Virus; [26]): > 50 µM | EC50 (Punta Toro Virus; [27]): > 50 µM | IC50 [2]: 18.7 µM | IC50 [3]: 35.2 µM | IC50 (MM.1S (multiple myeloma)): 28.3 µM | IC50 [4]: 7.1 µM | IC50 [5]: 52.6 µM | IC50 [6]: 30.9 µM | MBEC [7]: 70 µg/mL | MBEC [8]: 50 µg/mL | MBEC [9]: 50 µg/mL | MBEC [10]: 65 µg/mL | MBEC [11]: 70 µg/mL | MBEC [12]: >100 µg/mL | MBEC [13]: 70 µg/mL | MBEC [14]: 65 µg/mL | MBEC [15]: >100 µg/mL | MBEC [16]: 80 µg/mL | MBEC [17]: >100 µg/mL | EC50 (Reovirus-1; Vero, read-out: EC50 Reovirus-1, MTS): > 50 µM | IC50 [18]: 42.7 µM | IC50 [19]: 2.2 µM | EC50 (Yellow Fever Virus; [30]): > 50 µM | EC50 (Coxsackie Virus B4; B4, Vero, read-out: EC50 Coxsackie Virus B4, MTS): > 50 µM | IC50 [20]: 11.4 µM | EC50 (Sindbis Virus; [34]): > 50 µM

NC(=O)c1ncn([C@@H]2O[C@H](CO)[C@@H](O)[C@H]2O)n1 [RIB, ribavirin, reference compound]
EC50 (Para-Influenza-3 Virus; Vero, read-out: EC50 Para-Influenza-3 Virus, MTS): 73 µM | EC50 (Para-Influenza-3 Virus; Vero, read-out: EC50 Para-Influenza-3 Virus, Visual CPE Score): 111 µM | EC50 (Punta Toro Virus; Vero, read-out: EC50 Punta Toro Virus, MTS): 85 µM | EC50 (Punta Toro Virus; Vero, read-out: EC50 Punta Toro Virus, Visual CPE Score): 111 µM | EC50 (Reovirus-1; [28]): 107 µM | EC50 (Reovirus-1; [29]): 126 µM | CC50 (in vitro): > 250 µg/mL | EC50 (Yellow Fever Virus; [30]): 119 µM | EC50 (Yellow Fever Virus; [31]): > 250 µM | EC50 (Coxsackie Virus B4; [32]): > 250 µM | EC50 (Coxsackie Virus B4; [33]): > 250 µM | EC50 (Sindbis Virus; [34]): > 250 µM | EC50 (Sindbis Virus; [35]): 11 µM

CN(C)[C@@H]1C(O)=C(C(N)=O)C(=O)[C@@]2(O)C(O)=C3C(=O)c4c(O)cccc4[C@@](C)(O)[C@H]3C[C@@H]12 [TC, tetracycline, reference compound]
MIC [21]: 0.3 µg/mL (≈ 0.675 µM) | MIC [22]: 3 µg/mL (≈ 6.75 µM) | MIC [23]: 0.3 µg/mL (≈ 0.675 µM) | MIC [24]: 0.3 µg/mL (≈ 0.675 µM) | MIC [25]: 0.3 µg/mL (≈ 0.675 µM)

gentamycin [reference compound]
MBEC [7]: 25 µg/mL | MBEC [8]: 12.5 µg/mL | MBEC [9]: 25 µg/mL | MBEC [10]: 50 µg/mL | MBEC [11]: 50 µg/mL | MBEC [12]: 50 µg/mL | MBEC [13]: 50 µg/mL | MBEC [14]: 25 µg/mL | MBEC [15]: 50 µg/mL | MBEC [16]: 50 µg/mL | MBEC [17]: 50 µg/mL
